Assay results from article PMC9867837 (Cancer letters, 2022).

Key:
[1] = tested on: c-Myc, survivin and vascular endothelial growth factor (VEGF); experiment: Immunoblotting for Stat3 downstream genes in cells; assay type: cell-based, human; details: MDA-MB-231, doses that inhibit Stat3 activity
Description: These studies were performed as previously described. Details are presented in Supplementary Information, “Methods”.
Aberrantly-active Stat3 promotes tumor cell growth and proliferation, survival, migration, invasion, and metastasis.
These studies were performed as previously described [1 -3] . Briefly, snap-frozen tumor tissues or cultured cells treated or not were harvested and whole-cell or tissue lysates were prepared in radioimmunoprecipitation assay (RIPA) buffer. Samples of equal total protein were subjected to SDS - PAGE and immunoblotting analysis. Primary antibodies used were anti- Stat3, pY705-Stat3, pS727Stat3, […]
Akt, pT202/Y204Erk1/2 (p44/42), Erk1/2, PARP , caspase 3, c-Myc, survivin, VEGF, β-actin, α/β-tubulin, and GAPDH. For the studies of the effects of cell density and confluence on pY705Stat3, cells were seeded […] in culture dishes. The next day, cells were untreated (DMSO control, […]
0.1%) or treated at the same time with 1 or 2 µM H182, allowed to incubate for the indicated time and then harvested for whole-cell lysate preparation and SDS -PAGE / immunoblotting analy sis. […]
concentration of H182 for 6 h and then treated with 0- 100 nM docetaxel or 0-20 µM cisplatin for a total of 72 h. Viable cell numbers were assessed by a CyQuant cell proliferation kit according to the manufacturer’s instructions (Thermo/Life Technologies Corp, Carlsbad, CA). […]

[2] = biological target: T1, Stat1:Stat3 DNA-binding activity (Mus musculus, UniProt P42227); experiment: EMSA of Stat1:Stat3 DNA-binding activity in nuclear extracts of EGF-stimulated NIH3T3/hEGFR; assay type: biochemical; details: Fig. 1C, hSIE probe, 30 min
T1 construct: endogenous in cells; host or cells: EGF-stimulated NIH3T3/hEGFR fibroblasts (nuclear extract)
T1 sequence (P42227 2-770 limits assumed): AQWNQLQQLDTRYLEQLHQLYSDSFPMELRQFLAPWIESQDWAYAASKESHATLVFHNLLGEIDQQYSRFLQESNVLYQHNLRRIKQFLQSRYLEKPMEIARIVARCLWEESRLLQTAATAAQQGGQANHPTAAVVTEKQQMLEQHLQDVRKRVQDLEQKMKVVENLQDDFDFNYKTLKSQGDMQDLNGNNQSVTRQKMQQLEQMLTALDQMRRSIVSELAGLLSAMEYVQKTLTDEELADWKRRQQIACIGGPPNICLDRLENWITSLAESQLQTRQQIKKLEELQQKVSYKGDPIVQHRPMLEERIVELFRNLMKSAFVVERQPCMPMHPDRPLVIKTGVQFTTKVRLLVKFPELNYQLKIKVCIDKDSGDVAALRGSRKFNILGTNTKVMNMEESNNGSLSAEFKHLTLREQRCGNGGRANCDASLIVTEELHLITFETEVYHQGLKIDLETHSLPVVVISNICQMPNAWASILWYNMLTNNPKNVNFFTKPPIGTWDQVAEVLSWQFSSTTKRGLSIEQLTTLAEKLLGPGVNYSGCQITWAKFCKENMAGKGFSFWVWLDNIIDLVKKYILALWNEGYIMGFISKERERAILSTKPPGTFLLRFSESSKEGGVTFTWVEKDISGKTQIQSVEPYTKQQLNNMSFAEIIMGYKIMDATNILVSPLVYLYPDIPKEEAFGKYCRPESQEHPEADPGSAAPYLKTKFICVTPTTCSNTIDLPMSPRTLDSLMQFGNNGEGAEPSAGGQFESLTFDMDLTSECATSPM
T1 sequence (P42225 2-749 partner limits assumed): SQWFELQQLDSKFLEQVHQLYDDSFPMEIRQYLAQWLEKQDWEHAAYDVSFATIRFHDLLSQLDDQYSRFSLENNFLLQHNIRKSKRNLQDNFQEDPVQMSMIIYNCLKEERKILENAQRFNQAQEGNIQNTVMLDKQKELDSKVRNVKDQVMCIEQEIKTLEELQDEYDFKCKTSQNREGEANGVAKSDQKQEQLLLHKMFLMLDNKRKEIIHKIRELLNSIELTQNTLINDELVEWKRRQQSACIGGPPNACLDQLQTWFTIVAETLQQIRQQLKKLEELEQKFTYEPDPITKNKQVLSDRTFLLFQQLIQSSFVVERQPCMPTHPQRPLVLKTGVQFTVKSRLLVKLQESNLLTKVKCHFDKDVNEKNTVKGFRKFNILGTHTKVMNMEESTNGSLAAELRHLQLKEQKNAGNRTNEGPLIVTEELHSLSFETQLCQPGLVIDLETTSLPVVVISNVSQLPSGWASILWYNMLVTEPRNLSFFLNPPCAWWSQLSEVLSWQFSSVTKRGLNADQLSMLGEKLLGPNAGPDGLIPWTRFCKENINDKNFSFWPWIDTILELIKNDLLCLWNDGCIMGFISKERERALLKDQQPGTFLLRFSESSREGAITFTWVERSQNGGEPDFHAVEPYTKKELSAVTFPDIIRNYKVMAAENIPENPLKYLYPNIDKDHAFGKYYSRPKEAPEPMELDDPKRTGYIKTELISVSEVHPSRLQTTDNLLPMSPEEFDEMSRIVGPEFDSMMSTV
Description: Details are presented in Supplementary Information, “Methods”. […]
min, prior to incubation with the radiolabeled probe for 30 min at 30 °C and subjecting to EMSA analysis.
In another case, the nuclear extract was pre-incubated with the radiolabeled probe for 30 min at 30 °C prior to incubation with increasing concentration of H182 at room temperature for 30 min and subjecting to EMSA analysis. Bands corresponding to Stats DNA- binding activities were scanned and quantified using ImageJ and plotted as a percentage of control (vehicle) against the concentration of the inhibitor, from which the IC50 values were derived .

[3] = Human liver microsome stability; assay type: in vitro ADME; details: liver microsomes, read-out: Metabolic Stability HLM t1/2
Description: Solubility, human (HLM) and mouse liver microsomal (MLM), and plasma stability studies were performed by Eurofins Cerep Panlabs and Eurofin Discovery Services (www.eurofins.com/PharmaDiscovery), while protein binding studies were performed by Sanford Burnham Prebys Chemical Biology & Drug Discovery Core using standard protocols.

[4] = tested on: Stat3-dependent luciferase reporter, pLucTKS3; experiment: Stat3-dependent luciferase reporter pLucTKS3 in NIH3T3/v-Src; assay type: cell-based, mouse; details: 1–3 μM H182 for 1 h
Description: These studies were performed as previously reported using the v-Src-transformed NIH3T3/v-Src fibroblasts. Details are presented in Supplementary Information, “Methods”.
We next evaluated the effects of the azetidine compound, H182 on Stat3 transcriptional activity. We used mouse fibroblasts transformed by the viral Src oncoprotein (NIH3T3/vSrc) that harbor constitutive Stat3 activation, which were transiently transfected with the Stat3-dependent luciferase reporter, pLucTKS3 [25, 30]. Transfected cells were treated with H182 and the luciferase activity was assayed in the cytosolic extract preparations of equal total protein [12, 13, 30]. […]
In another case, the nuclear extract was pre-incubated with the radiolabeled probe for 30 min at 30 °C prior to incubation with increasing concentration of H182 at room temperature for 30 min and subjecting to EMSA analysis. Bands corresponding to Stats DNA- binding activities were scanned and quantified using ImageJ and plotted as a percentage of control (vehicle) against the concentration of the inhibitor, from which the IC50 values were derived . […]
These studies were performed as previously reported using the v-Src -transformed NIH3T3/v-Src fibroblasts [1 -5] . […] Luciferase activity was normalized to total protein concentration of cell lysate, which was determined by Bradford assay (Bio-Rad, Hercules, CA) . […]

[5] = tested on: MDA-MB-231 tumor xenografts; experiment: Subcutaneous MDA-MB-231 xenografts in athymic nude mice; assay type: in vivo
Description: Mice were housed in specific pathogen-free conditions in the animal facility. All animal experiments were conducted in accordance with the recommendations in the Guide for the Care and Use of Laboratory Animals on a protocol approved by the Institutional Animal Care and Use Committee (IACUC). Subcutaneous xenograft studies were performed as previously reported. Five-week-old female athymic nude mice were purchased from Envigo (Indianapolis, IN) or Charles River (Wilmington, MA) and maintained in the institutional animal facilities approved by the American Association for Accreditation of Laboratory Animal Care. […] Tumor sizes were monitored every 3–4 days, measured with calipers, and converted to tumor volume, V, according to the formula V = 0.52 × a^2 × b, where a, smallest superficial diameter, and b, largest superficial diameter. For each treatment group, the tumor volumes for each set of measurements were statistically analyzed relative to the control (DMSO-treated; 70% DMSO with sterile PBS) group.
Constitutively-active Stat3 promotes primary tumor development and the progression to therapy resistance. We proceeded to evaluate the in vivo antitumor efficacy against tumor growth in both human xenograft and mouse syngeneic models of TNBC. In four separate studies, we tested the efficacy of H182, H278 (HCl salt of H182), and H120. For these xenografts, the human breast cancer, MDA-MB-231 cells were injected subcutaneously into athymic nude mice. When tumors were palpable (80–120 mm^3), mice were grouped so that the mean tumor sizes were identical between groups and treated as follows: A) intraperitoneal (IP) injections of H182 at 10 mg/kg every other day for 33 days; B) oral gavage of H182 every day at 5 mg/kg for 20 days, and then increased to 20 mg/kg for additional 12 days; and C) oral gavage of H120 at 20 mg/kg, daily for 14 days, and then increased to 30 mg/kg, daily for additional 14 days.

## O=C([C@H]1CCN1S(=O)(=O)c1c(F)c(F)c(F)c(F)c1F)N(Cc1ccc(C2CCCCC2)cn1)c1ccc2c(=O)[nH]ncc2c1 [Compound H182]
[1]
  Expression of c-Myc, survivin and VEGF in cells: rapidly suppressed
[2]
  IC50: 3.4 µM
[3]
  half-life: 21 min
[4]
  Effect on Stat3-driven luciferase reporter expression (pLucTKS3): dose-dependent inhibition
[5]; H182 IP 10 mg/kg every other day for 33 days
  Tumor growth, MDA-MB-231 xenografts: significant tumor growth inhibition
[5]; H182 oral gavage daily 5 mg/kg for 20 days, then 20 mg/kg for 12 days
  Tumor growth, MDA-MB-231 xenografts: significant tumor growth inhibition
[5]; the three xenograft studies
  Body weights and obvious signs of toxicity: No notable changes
